# Source: ChEMBL document CHEMBL1201862, “PubChem BioAssay data set” (2004)
#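 Exposure lasted 48 hours, with cells grown in 96-well plates and compounds tested at five concentrations. The concentration for 50% growth inhibition is given as GI50.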 Activity calls are given as the source filed them. Cut-off read from the data, not from the text of the source: active = GI50 up to about 1.1 µM and inactive = higher.
# Assays:
# Experiment in all cases: NCI tumour cell line growth inhibition, 48 h
# U-251 = test system: U-251
# HCC 2998 = test system: HCC 2998
# PC-3 = test system: PC-3
# SW-620 = test system: SW-620
# HOP-62 = test system: HOP-62
# COLO 205 = test system: COLO 205
# K562 = test system: K562
# UO-31 = test system: UO-31
# LOX IMVI = test system: LOX IMVI
# A549 = test system: A549
# OVCAR-3 = test system: OVCAR-3
# NCI/ADR-RES = test system: NCI/ADR-RES
# RPMI-8226 = test system: RPMI-8226
# KM12 = test system: KM12
# SN12C = test system: SN12C
# TK-10 = test system: TK-10
# SF-268 = test system: SF-268
# NCI-H226 = test system: NCI-H226
# MCF7 = test system: MCF7
# SK-OV-3 = test system: SK-OV-3
Structure (SMILES),GI50 (U-251),GI50 (HCC 2998),GI50 (PC-3),GI50 (SW-620),GI50 (HOP-62),GI50 (COLO 205),GI50 (K562),GI50 (UO-31),GI50 (LOX IMVI),GI50 (A549),GI50 (OVCAR-3),GI50 (NCI/ADR-RES),GI50 (RPMI-8226),GI50 (KM12),GI50 (SN12C),GI50 (TK-10),GI50 (SF-268),GI50 (NCI-H226),GI50 (MCF7),GI50 (SK-OV-3)
NS(=O)(=O)c1c(O)c2ccccc2oc1=O,> 100 µM (inactive),> 100 µM (inactive),> 100 µM (inactive),> 100 µM (inactive),> 100 µM (inactive),> 100 µM (inactive),> 100 µM (inactive),> 100 µM (inactive),> 100 µM (inactive),> 100 µM (inactive),> 100 µM (inactive),> 100 µM (inactive),> 100 µM (inactive),> 100 µM (inactive),> 100 µM (inactive),> 100 µM (inactive),> 100 µM (inactive),> 100 µM (inactive),> 100 µM (inactive),
CC1(C)N=C(N)N=C(N)N1c1ccc(CCCCc2ccc(Cl)cc2Cl)cc1,0.245 µM (active),0.451 µM (active),0.418 µM (active),0.356 µM (active),1.08 µM (active),0.927 µM (active),42.2 µM (inactive),21.2 µM (inactive),0.417 µM (active),0.335 µM (active),0.431 µM (active),93.5 µM (inactive),1.17 µM (inactive),0.63 µM (active),0.502 µM (active),3.13 µM (inactive),0.382 µM (active),,0.453 µM (active),0.746 µM (active)
Fc1cccc(F)c1C1SCC2=Nc3ccccc3CN21 (stereo not given),> 100 µM (inactive),> 100 µM (inactive),30.8 µM (inactive),> 100 µM (inactive),20.8 µM (inactive),> 100 µM (inactive),92.3 µM (inactive),96.6 µM (inactive),> 100 µM (inactive),63 µM (inactive),19 µM (inactive),22.4 µM (inactive),56.1 µM (inactive),54 µM (inactive),> 100 µM (inactive),> 100 µM (inactive),> 10 µM (inactive),,35 µM (inactive),36.8 µM (inactive)
Cn1c(=O)n2c(=O)n(C)c(=O)n2c1=O,> 100 µM (inactive),> 100 µM (inactive),> 100 µM (inactive),> 100 µM (inactive),,> 100 µM (inactive),> 100 µM (inactive),> 100 µM (inactive),> 100 µM (inactive),> 100 µM (inactive),> 100 µM (inactive),> 100 µM (inactive),> 100 µM (inactive),> 100 µM (inactive),> 100 µM (inactive),> 100 µM (inactive),> 100 µM (inactive),> 100 µM (inactive),> 100 µM (inactive),> 100 µM (inactive)
C=CCc1c(O)c2ccccc2[nH]c1=O,> 100 µM (inactive),> 100 µM (inactive),> 100 µM (inactive),> 100 µM (inactive),> 100 µM (inactive),> 100 µM (inactive),> 100 µM (inactive),> 100 µM (inactive),> 100 µM (inactive),> 100 µM (inactive),> 100 µM (inactive),> 100 µM (inactive),> 100 µM (inactive),> 100 µM (inactive),> 100 µM (inactive),> 100 µM (inactive),,> 100 µM (inactive),> 100 µM (inactive),
C=CC(=C)CCC(Br)C(C)(C)Cl (stereo not given),> 100 µM (inactive),> 100 µM (inactive),> 100 µM (inactive),> 100 µM (inactive),> 100 µM (inactive),> 100 µM (inactive),> 100 µM (inactive),> 100 µM (inactive),,> 100 µM (inactive),> 100 µM (inactive),> 100 µM (inactive),> 100 µM (inactive),> 100 µM (inactive),> 100 µM (inactive),> 100 µM (inactive),> 100 µM (inactive),> 100 µM (inactive),46.6 µM (inactive),> 100 µM (inactive)
Cc1ccc(C(=O)Oc2ccc(/C=C3\CCC/C(=C\c4ccc(OC(=O)c5ccc(C)cc5)cc4)C3=O)cc2)cc1,> 100 µM (inactive),> 100 µM (inactive),> 100 µM (inactive),> 100 µM (inactive),> 100 µM (inactive),> 100 µM (inactive),,> 100 µM (inactive),> 100 µM (inactive),> 100 µM (inactive),> 100 µM (inactive),> 100 µM (inactive),> 100 µM (inactive),> 100 µM (inactive),> 100 µM (inactive),> 100 µM (inactive),> 100 µM (inactive),,> 100 µM (inactive),
NC(=O)SCC(=O)Nc1ccc2cccc3c2c1CC3,5.33 µM (inactive),62.1 µM (inactive),4.4 µM (inactive),12.2 µM (inactive),52.1 µM (inactive),> 100 µM (inactive),12.8 µM (inactive),41.2 µM (inactive),6.75 µM (inactive),> 100 µM (inactive),31.6 µM (inactive),42.6 µM (inactive),20.9 µM (inactive),36.7 µM (inactive),21.5 µM (inactive),27.9 µM (inactive),15.3 µM (inactive),,11 µM (inactive),
COC(=O)c1ccc(OCc2ccc3nc(-c4ccccc4)c(Cl)nc3c2)cc1,27.7 µM (inactive),> 100 µM (inactive),> 100 µM (inactive),> 100 µM (inactive),29.4 µM (inactive),76.2 µM (inactive),,> 100 µM (inactive),> 100 µM (inactive),86.9 µM (inactive),> 100 µM (inactive),65.2 µM (inactive),> 100 µM (inactive),> 100 µM (inactive),> 100 µM (inactive),58.2 µM (inactive),42.9 µM (inactive),,> 100 µM (inactive),
Nc1nc(O)nc2sc3c(c12)CCCC3,> 100 µM (inactive),82 µM (inactive),> 100 µM (inactive),> 100 µM (inactive),98.4 µM (inactive),39.5 µM (inactive),61.4 µM (inactive),81.7 µM (inactive),,84.3 µM (inactive),,> 100 µM (inactive),38.5 µM (inactive),33.3 µM (inactive),73.3 µM (inactive),92 µM (inactive),90.4 µM (inactive),4.57 µM (inactive),44.5 µM (inactive),> 100 µM (inactive)
CC1=C(SCc2ccccc2)C(=O)c2ccccc2C1=O,16.8 µM (inactive),26.7 µM (inactive),17.6 µM (inactive),19.9 µM (inactive),17.3 µM (inactive),19.7 µM (inactive),3.05 µM (inactive),,17.6 µM (inactive),,10.5 µM (inactive),21.7 µM (inactive),2.42 µM (inactive),18.5 µM (inactive),17.8 µM (inactive),21 µM (inactive),16.7 µM (inactive),,14.2 µM (inactive),20.2 µM (inactive)
